In general, IC50 refers to the concentration that gives 50% inhibition. In general, viability refers to a per cent measure of how many cells are alive, often set against a control.

Data set [1] has as its system A549 human lung adenocarcinoma cells. The note with it: for A549 cell viability: 100 µM.
Experimental: (§2) The dissolved compounds were then manually dispensed into deep 96-well plates, sealed, and stored at −80 °C until the day of the experiment. For the in vitro antiproliferative activity screening, the compounds were thawed at room temperature, protected from light, and the aliquots were diluted in complete cell culture media to achieve a final concentration of 100 µM and used for the in vitro assays.
(§3) All cells were cultivated in Dulbecco’s Modified Eagle Medium/Nutrient Mixture F-12 (DMEM/F-12) (Gibco, Waltham, MA, USA), 10% fetal bovine serum (FBS) (Gibco, Waltham, MA, USA), 100 U/mL penicillin, and 100 μg/mL streptomycin (P/S) (Gibco, Waltham, MA, USA). Culturing conditions were maintained at 37 °C with a humidified atmosphere containing 5% CO2. The culture medium was refreshed every 2–3 days, and cells were passaged upon reaching 70–80% confluence.
(§4) The in vitro inhibitory effects of the compounds were assessed using the MTT assay [40, 41, 42, 43, 44]. Briefly, cells were plated in 96-well plates at a density of 1 × 10^4 cells per well. After allowing the cells to adhere overnight at 37 °C in 5% CO2, they were treated with compounds at concentration of 100 µM in triplicate. Following a 20 h incubation, MTT reagent was added, and the cells were further incubated for 4 h. The resulting formazan was solubilized in anhydrous DMSO, and absorbance was measured at 570 nm using a microplate reader. Cell viability was calculated using the following formula: ([AE − AB]/[AC − AB]) × 100%, where AE, AC, and AB represent the absorbance values of experimental samples, untreated controls, and blank wells, respectively. Data analysis was performed using GraphPad Prism or QuickCalcs (2.0 version).
(§5) The IC50 values, defined as the concentration of compound required to reduce cell viability by 50%, were determined using a dose–response curve. The data were fitted to a nonlinear regression model (GraphPad Prism version 9.0, GraphPad Software, San Diego, CA, USA) to calculate the IC50 values for each compound tested in triplicate.
Data set [2] deals with HEK293 human embryonic kidney cells. Kind of data set: MTT cytotoxicity in non-cancerous HEK293 cells. Type of data set: cell-based. The note with it: 24 h.
Experimental: as §3, §4, §5
For data set [3], the system named is A549 human lung adenocarcinoma cells. Description: cells. To be noted: A549, 24 h; for viability at 100 µM: read-out: A549 cell viability.
Experimental: as §2, §3, §4, §5
The test system of data set [4] is H69AR cells. Description: MTT cell viability assay in anthracycline-resistant H69AR cells. Type of data set: cell-based. To be noted: Homo sapiens, 24 h, normalized to untreated control. (In general: Formazan colour is commonly taken as a measure of viable cells.)
Experimental: as §2
(§6) The A549 non-small cell human lung carcinoma cells (ATCC CCL-185), H69 (HTB-19), H69AR (CRL-11351) were obtained from the American Type Culture Collection (Rockville, MD, USA). […] All cells were cultivated in Dulbecco’s Modified Eagle Medium/Nutrient Mixture F-12 (DMEM/F-12) (Gibco, Waltham, MA, USA), 10% fetal bovine serum (FBS) (Gibco, Waltham, MA, USA), 100 U/mL penicillin, and 100 μg/mL streptomycin (P/S) (Gibco, Waltham, MA, USA). Culturing conditions were maintained at 37 °C with a humidified atmosphere containing 5% CO2. The culture medium was refreshed every 2–3 days, and cells were passaged upon reaching 70–80% confluence.
as §4
Data set [5] has as its system A549 agarose-based spheroids. Description: LDH release cytotoxicity assay in A549 3D spheroids. Type of data set: cell-based, human. The note with it: 100 µM, 24 h. As to the method: (§1) A549 tumor spheroids were generated using an agarose-based technique with modifications. A549 cells were plated at a density of 2.5 × 10^5 cells/well in 96-well plates pre-coated with 50 µL of 1% agarose in Dulbecco’s Phosphate-Buffered Saline (DPBS). The plates were incubated for 48 h to allow spheroid formation. After 48 h, the spheroids were treated with 100 µM of compounds dissolved in DMEM/F12 supplemented with 10% FBS and 0.25% DMSO for 24 h.
A549 tumor spheroids were generated in 96-well plates pre-coated with 50 µL of 1% agarose in Dulbecco’s Phosphate-Buffered Saline (DPBS), as described previously. After 48 h of spheroid formation, the spheroids were treated with compounds dissolved in DMEM/F12 supplemented with 10% FBS and 0.25% DMSO. After a 24 h incubation, spheroid-conditioned media were collected by centrifuging the plates at 1000× g for 2 min to remove the spheroids. Then, 50 µL of the supernatant was transferred to a new 96-well plate and mixed with LDH assay reagent (Pierce LDH Cytotoxicity Assay Kit, Thermo Fisher Scientific, Waltham, MA, USA) according to the manufacturer’s instructions. A commercial maximum LDH control was used to normalize the results. The percentage of LDH release was calculated based on the absorbance readings, using the formula: (sample absorbance − blank absorbance)/(maximum control absorbance − blank absorbance) × 100%.
In general terms: LDH leaks from cells whose membrane has failed.

In data set [6] the test system is A549 agarose-based spheroids. Kind of data set: AO/PI staining of A549 spheroids. Type of data set: cell-based, human. The note with it: 100 µM, 24 h. As to the method: as §1
After treatment with compounds, spheroids were incubated with 5 µg/mL acridine orange and 5 µg/mL propidium iodide for 30 min at 37 °C in a humidified incubator. Following incubation, the spheroids were washed twice with DPBS to remove excess stain. The stained spheroids were then visualized using the EVOS cell imaging system (Thermo Fisher Scientific, Waltham, MA, USA). The fluorescent images were captured, and the viability of the spheroids was assessed based on the differential staining patterns, with live cells showing green fluorescence (acridine orange) and dead cells displaying red fluorescence (propidium iodide).

Data set [7] concerns H69 human lung carcinoma cells. Kind of data set: MTT cell viability assay in H69 cells. In kind it is cell-based. The note with it: NCI-H69, 24 h, normalized to untreated control.
Experimental: as §2, §6, §4

Like-named read-outs stand apart in the source and are kept apart here.

“3,3′-{[(Phenylmethylene)bis(4-phenylthiazole-2,5-diyl)]bis[(4-acetylphenyl)azanediyl]}dipropionic acid [Compound 13]” yielded an A549 cell viability in data set [1] of 57.6%.

As to `N.N.[Cl][Pt][Cl]` [CP, cisplatin, reference compound], the IC50 was determined as 5.57 µM in data set [2] and 11.7 µM in data set [1] (A549 cells, 24 h, MTT).

Regarding `CC(=O)c1ccc(N(CCC(=O)O)c2nc(-c3ccccc3)c(C(c3ccc(F)cc3)c3sc(N(CCC(=O)O)c4ccc(C(C)=O)cc4)nc3-c3ccccc3)s2)cc1` [Compound 14, 3,3′-/{[(4-Fluorophenyl)methylene]bis(4-phenylthiazole-5,2-diyl)}bis[(4 acetylphenyl)azanediyl]/dipropionic acid], in data set [3], the viability at 100 µM came to 47.8%.

In the case of `C/C(=N/O)c1ccc(N(CCC(=O)O)c2nc(-c3ccccc3)cs2)cc1` [Compound 21, 3-/{4-[1-(Hydroxyimino)ethyl]phenyl}(4-phenylthiazol-2-yl)amino/propanoic acid], the viability at 100 µM in data set [4] was found to be 23.5%; in data set [3], 35.3%; in data set [7], 18.3%. Moreover, the IC50 was determined as 5.42 µM in data set [3] and 14.6 µM in data set [2] (Homo sapiens). For the same compound, the “LDH release (cytotoxicity)” value in data set [5] is given as 66.7%. Besides, the “spheroid morphology and cell viability by AO/PI staining” value (“spheroid morphology and cell viability” below) in data set [6] was “partial cell death”.

Consider `C/C(=N/O)c1ccc(N(CCC(=O)O)c2nc(-c3ccc(Cl)cc3)cs2)cc1` [Compound 22, 3-/[4-(4-Chlorophenyl)thiazol-2-yl]{4-[1-(hydroxyimino)ethyl]phenyl}amino/propanoic acid], for which the viability at 100 µM in data set [4] is 26.6%; in data set [3], 37.6%; in data set [7], 33.9%. Moreover, the IC50 in data set [3] was determined as 2.47 µM; in data set [2] (Homo sapiens), 38 µM. The “LDH release (cytotoxicity)” value in data set [5] was found to be 40.6%. In data set [6], the “spheroid morphology and cell viability” value is “partial cell death”.

Take `COC(=O)CCN(c1ccc(/C(C)=N\O)cc1)c1nc(-c2ccccc2)cs1` [Compound 23, Methyl 3-/{4-[1-(hydroxyimino)ethyl]phenyl}(4-phenylthiazol-2-yl)amino/propanoate]: the viability at 100 µM in data set [3] was found to be 41.9%.

For `COC(=O)CCN(c1ccc(/C(C)=N\O)cc1)c1nc(-c2ccc(Cl)cc2)cs1` [Compound 24, Methyl 3-/[4-(4-chlorophenyl)thiazol-2-yl]{4-[1-(hydroxyimino)ethyl]phenyl}amino/propanoate], the viability at 100 µM in data set [3] amounted to 77.7%.

`C/C(=N/O)c1ccc(N(CCC(=O)NN)c2nc(-c3ccccc3)cs2)cc1` [Compound 25, 3-/{4-[1-(Hydroxyimino)ethyl]phenyl}(4-phenylthiazol-2-yl)amino/propanehydrazide]: the viability at 100 µM came out at 48.4% in data set [4], 25% in data set [3] and 27.7% in data set [7]. Also, the IC50 is 8.05 µM in data set [3] and 10.7 µM in data set [2] (Homo sapiens). Further, in data set [5], the “LDH release (cytotoxicity)” value was 72.1%. Besides, in data set [6], the “spheroid morphology and cell viability” value was “substantial disruption of spheroid architecture and widespread PI-positive staining”.

On to `C/C(=N/O)c1ccc(N(CCC(=O)NN)c2nc(-c3ccc(Cl)cc3)cs2)cc1` [Compound 26, 3-/[4-(4-Chlorophenyl)thiazol-2-yl]{4-[1-(hydroxyimino)ethyl]phenyl}amino/propanehydrazide], for which the values for the viability at 100 µM in data set [4], in data set [3] and in data set [7] were 15.4%, 30.5% and 67%, respectively. Moreover, the IC50 in data set [3] is 25.4 µM; in data set [2] (Homo sapiens), 13.8 µM. Moreover, in data set [5], the “LDH release (cytotoxicity)” value was 89.9%. In addition, the “spheroid morphology and cell viability” value in data set [6] is “substantial disruption of spheroid architecture and widespread PI-positive staining”.

For `CC(=NNc1ccccc1)c1ccc(N(CCC(=O)O)c2nc(-c3ccccc3)cs2)cc1` [Compound 27, 3-/{4-[1-(2-Phenylhydrazineylidene)ethyl]phenyl}(4-phenylthiazol-2-yl)amino/propanoic acid], the A549 cell viability in data set [1] is given as 82.4–100%.

With `CC(=NNc1ccccc1)c1ccc(N(CCC(=O)O)c2nc(-c3ccc(Cl)cc3)cs2)cc1` [Compound 28, 3-/[4-(4-Chlorophenyl)thiazol-2-yl]{4-[1-(2-phenylhydrazineylidene)ethyl]phenyl}amino/propanoic acid], the A549 cell viability in data set [1] is 82.4–100%.

As for `COC(=O)CCN(c1ccc(C(C)=O)cc1)c1nc(-c2ccccc2)cs1` [Compound 29, Methyl 3-[(4-acetylphenyl)(4-phenylthiazol-2-yl)amino]propanoate], the viability at 100 µM in data set [3] fell in the range of 82.4 to 100%.

As for `COC(=O)CCN(c1ccc(C(C)=O)cc1)c1nc(-c2ccc(Cl)cc2)cs1` [Compound 30, Methyl 3-{(4-acetylphenyl)[4-(4-chlorophenyl)thiazol-2-yl]amino}propanoate], in data set [3], the viability at 100 µM fell in the range of 82.4 to 100%.

`CC(=NN)c1ccc(N(CCC(=O)NN)c2nc(-c3ccccc3)cs2)cc1` [Compound 31, 3-{[4-(1-Hydrazineylideneethyl)phenyl](4-phenylthiazol-2-yl)amino}propanehydrazide]: the viability at 100 µM in data set [3] came to 67.1%.

For the compound `CC(=NN)c1ccc(N(CCC(=O)NN)c2nc(-c3ccc(Cl)cc3)cs2)cc1` [Compound 32, 3-{[4-(4-Chlorophenyl)thiazol-2-yl][4-(1-hydrazineylideneethyl)phenyl]amino}propanehydrazide], the viability at 100 µM in data set [3] stood at 84%.

As to `COc1cccc2c1C(=O)c1c(O)c3c(c(O)c1C2=O)C[C@@](O)(C(=O)CO)C[C@@H]3O[C@H]1C[C@H](N)[C@H](O)[C@H](C)O1` [DOX, doxorubicin, reference compound], the IC50 turned out to be 3.02 µM in data set [3] and 3.82 µM in data set [2] (Homo sapiens).
